The subject of one test is HaCaT cells. Description: MCB test on HaCaT: intracellular GSH level after UV daylight (UV-DL) exposure. The conditions noted are these: for activity at 30 µM / inhibition at 30 µM / activity at 100 µM / inhibition at 100 µM: Homo sapiens, t=6 hours after exposure; for activity at 30 µM / activity at 100 µM: GSH-monochlorobimane fluorescence, HaCaT pretreated and exposed to UV-DL, read-out: % fluo; for inhibition at 30 µM / inhibition at 100 µM: against UV-DL-induced depletion of GSH, read-out: % protection; for inhibition at 30 µM / inhibition at 100 µM / protection against the UV-DL-induced depletion of GSH: HaCaT. Format: cell-based, human. The protocol: The study consisted in evaluating at the cellular level the protective effect of the reference molecule, lipoic acid, and also of lipoic acid derivatives according to the invention, with respect to the UV-DL-induced depletion of intracellular GSH.
To do this, HaCaT cells were exposed to UV daylight (UV-DL). The level of intracellular GSH was then measured, thus allowing evaluation of the possible protection afforded by the addition to the culture medium of the lipoic acid derivatives according to the invention.
UV daylight corresponds to the radiation of non-zenithal sunlight and to an average spectral illumination: it […] the radiation received by the skin of an individual in the course of a day and not solely to that corresponding to exposure to zenithal sunlight. Devices for reproducing this radiation are described in FR 2,863,356. The evaluation technique uses a fluorescent probe, monochlorobimane (MCB). […] The specificity of MCB towards GSH in our keratinocyte model (HaCaT line) was confirmed previously. Pretreatment of cells with the reference molecule, lipoic acid, for 24 hours at 1 mM affords approximately 100% protection against the UV-DL-induced depletion of GSH (see FIG. 1 showing the evaluation of the protective effect of lipoic acid at 1 mM in the MCB test on HaCaT: the measurement of the level of intracellular GSH is performed on keratinocytes that are or are not pretreated with lipoic acid at 1 mM and exposed to UV-DL at t=0, t=6 hours and t=24 hours after the exposure to UV-DL); this protection is about 83% at 500 μM and about 10% at 100 μM.
Evaluation of the protective effect of compound 1 at 100 μM and at 30 μM of compounds 9, 10, 2, 13, 14, 12, 24, 26 and 27 is performed in the MCB test on HaCaT: evaluation of the protective effect of the silyl dithiolane compounds of WO 2008/058 999 at 100 μM is also performed in the MCB test on HaCaT: the compound 5-(1,2-dithiolan-3-yl)-N-[3-(trimethylsilyl)propyl]pentanamide and the compound (trimethylsilyl)methyl 5-(1,2-dithiolan-3-yl)pentanoate. Measurement of the intracellular level of GSH is performed on keratinocytes that have or have not been pretreated with the active agents and exposed to UV-DL, t=6 hours after the exposure to UV-DL). The results are given in the graphs in FIGS. 2 and 3.

Test [1] concerns normal human fibroblasts (NHF). Description: Comet test: UV-A-induced DNA damage in normal human fibroblasts. The conditions noted are these: 24 hours contact, UV-A = 30 min. Format: cell-based. The text has this:
Solar UV is capable of giving rise to extensive oxidative damage in skin cells, and especially in DNA. The nucleic acids absorb the UV-B photons, thus inducing DNA damage directly. Although UV-A is not directly absorbed by DNA, it has a genotoxic action mediated by reactive oxygen species. The comet test makes it possible to quantify the UV-induced DNA damage (in this case UV-A): the breaking of strands and oxidative DNA lesions (alkali-labile sites cleaved under alkaline conditions) are detected. The principle of this test is based on the capacity of denatured and cleaved DNA fragments to migrate outside the cell nuclei, under the influence of an electric field, whereas undamaged DNA remains confined in the nucleus. The damaged DNA fragments form a trail behind the cell nucleus. The cells then take the appearance of “comets”. The “tail” of each comet is proportionately larger and stronger the greater the DNA damage incurred. (Alapetite C. et al., 1996, Int. J. Rad. Bio.; Klaude M, et al., 1996, Mut. Res.; Lehmann J. et al., 1998, Mut. Res.; Singh N P. et al., 1988, Exp. Cell Res.).
The study consisted in evaluating the photoprotective effect of two molecules with respect to UV-A-induced DNA damage. To do this, normal human fibroblasts (NHF) were placed in contact with the active agents for 24 hours. The cells were then detached, included in an agarose gel and then deposited on a microscope slide. Following the UV-A exposure (for 30 minutes), the cells were subjected to cell lysis (so as to keep intact only the genetic material), to a DNA-denaturing step and then to electrophoresis to make the damaged DNA migrate. The level of damaged DNA was measured using a fluorescence microscope combined with specialized image analysis software.

Where “and” joins values, the source holds several entries; their conditions need not be identical. Equal entries are not always repeated.

Turning to `CCCCCCCCOC(=O)C1(C)CSSC1` [Compound 9, octyl 4-methyl-1,2-dithiolane-4-carboxylate], in the test with HaCaT cells, the activity at 30 µM came to 80% and the inhibition at 30 µM was 66%.
On the same counts, the results for `CC1(C(=O)NCCO)CSSC1` [Compound 14, N-(2-hydroxyethyl)-4-methyl-1,2-dithiolane-4-carboxamide] are 78% and 61%.
As to `CCCCCCCNC(=O)C1(C)CSSC1` [Compound 10, N-heptyl-4-methyl-1,2-dithiolane-4-carboxamide], in the test with HaCaT cells, the activity at 30 µM was found to be 99% and the inhibition at 30 µM was determined as 98%.
Consider `CC1(C(N)=O)CS[S+]([O-])C1` (stereo not shown) [Compound 26, 4-methyl-1,2-dithiolane-4-carboxamide 1-oxide], for which, in the test on HaCaT cells, the activity at 30 µM came out at 117% and the inhibition at 30 µM came to 169%.
Turning to `CC1(C(=O)O)CSSC1` [Compound 1, 4-methyl-1,2-dithiolane-4-carboxylic acid], in the test on HaCaT cells, the activity at 100 µM was 88% and the inhibition at 100 µM stood at 74%. Further, in test [1] (1 μM), the “% of DNA damage” value is 80.7%, the “% protection” value is listed as 19.3% and the “Mean TM (DNA damage)” value was found to be 9.38. Besides, the “% protection” value in test [1] (1 μM, listed as compound 1) was 20%. Moreover, in test [1] (10 μM), the “% of DNA damage” value is reported as 69.4%, the “% protection” value is given as 30.6% and the “Mean TM (DNA damage)” value came to 8.06. For the same compound, the “% protection” value in test [1] (10 μM, listed as compound 1) is reported as 30%.
Consider `CC(=O)NCCSC(=O)C1(C)CSSC1` [Compound 13, S-[2-(acetylamino)ethyl]4-methyl-1,2-dithiolane-4-carbothioate], for which, in the test with HaCaT cells, the activity at 30 µM is 71% and the inhibition at 30 µM was 50%.
Turning to `CC1(C(N)=O)CSSC1` [Compound 2, 4-methyl-1,2-dithiolane-4-carboxamide], in the test on HaCaT cells, the activity at 30 µM is 92% and the inhibition at 30 µM was found to be 86%. In test [1] (10 μM), the “% of DNA damage” value is 37.1%; the “% protection” value was 63% and 62.9%; the “Mean TM (DNA damage)” value amounted to 2.73.
For `C[Si](C)(C)COC(=O)CCCCC1CCSS1` (stereo not shown) [(trimethylsilyl)methyl 5-(1,2-dithiolan-3-yl)pentanoate, reference compound], in the test with HaCaT cells, the activity at 100 µM came out at 76% and the inhibition at 100 µM was found to be 42%.
`CC1(C(N)=O)CSS(=O)(=O)C1` (stereo not shown) [Compound 27, 4-methyl-1,2-dithiolane-4-carboxamide 1,1-dioxide]: in the test with HaCaT cells, the activity at 30 µM worked out at 100% and the inhibition at 30 µM amounted to 101%.
On the same counts, the results for `CC1(C(=O)O)CSS(=O)(=O)C1` (stereo not shown) [Compound 24, 4-methyl-1,2-dithiolane-4-carboxylic acid 1,1-dioxide] are 91% and 63%.
On to `C[Si](C)(C)CCCNC(=O)CCCCC1CCSS1` (stereo not shown) [5-(1,2-dithiolan-3-yl)-N-[3-(trimethylsilyl)propyl]pentanamide, reference compound], for which, in the test on HaCaT cells, the activity at 100 µM stood at 75% and the inhibition at 100 µM is 41%.
On to `COC(=O)C(CCSC)NC(=O)C1(C)CSSC1` (stereo not shown) [Compound 12, methyl 2-{[(4-methyl-1,2-dithiolan-4-yl)carbonyl]amino}-4-(methylsulfanyl)butanoate], for which, in the test with HaCaT cells, the activity at 30 µM was determined as 78% and the inhibition at 30 µM came to 61%.
Consider `O=C(O)CCCCC1CCSS1` (stereo not shown) [lipoic acid, 1,2-dithiacyclopentane-3-valeric acid, reference compound], for which, in the test on HaCaT cells, the activity at 100 µM is 63%. Besides, the inhibition at 100 µM with HaCaT cells came out at 13%. Moreover, the “protection against the UV-DL-induced depletion of GSH” value in the test with HaCaT cells (pretreatment at 100 μM) was “about 10%”; with HaCaT cells (pretreatment at 500 μM) it was “about 83%”; with HaCaT cells (pretreatment for 24 hours at 1 mM), “approximately 100%”.
